The text below walks through data of PMC11357446, “Searching for Novel HDAC6/Hsp90 Dual Inhibitors with Anti-Prostate Cancer Activity: In Silico Screening and In Vitro Evaluation” (Pharmaceuticals, 2024).

For test [1], the target named is T1, HDAC6 recombinant enzyme (Homo sapiens, UniProt Q9UBN7).
T1 sequence (Q9UBN7 1-1215): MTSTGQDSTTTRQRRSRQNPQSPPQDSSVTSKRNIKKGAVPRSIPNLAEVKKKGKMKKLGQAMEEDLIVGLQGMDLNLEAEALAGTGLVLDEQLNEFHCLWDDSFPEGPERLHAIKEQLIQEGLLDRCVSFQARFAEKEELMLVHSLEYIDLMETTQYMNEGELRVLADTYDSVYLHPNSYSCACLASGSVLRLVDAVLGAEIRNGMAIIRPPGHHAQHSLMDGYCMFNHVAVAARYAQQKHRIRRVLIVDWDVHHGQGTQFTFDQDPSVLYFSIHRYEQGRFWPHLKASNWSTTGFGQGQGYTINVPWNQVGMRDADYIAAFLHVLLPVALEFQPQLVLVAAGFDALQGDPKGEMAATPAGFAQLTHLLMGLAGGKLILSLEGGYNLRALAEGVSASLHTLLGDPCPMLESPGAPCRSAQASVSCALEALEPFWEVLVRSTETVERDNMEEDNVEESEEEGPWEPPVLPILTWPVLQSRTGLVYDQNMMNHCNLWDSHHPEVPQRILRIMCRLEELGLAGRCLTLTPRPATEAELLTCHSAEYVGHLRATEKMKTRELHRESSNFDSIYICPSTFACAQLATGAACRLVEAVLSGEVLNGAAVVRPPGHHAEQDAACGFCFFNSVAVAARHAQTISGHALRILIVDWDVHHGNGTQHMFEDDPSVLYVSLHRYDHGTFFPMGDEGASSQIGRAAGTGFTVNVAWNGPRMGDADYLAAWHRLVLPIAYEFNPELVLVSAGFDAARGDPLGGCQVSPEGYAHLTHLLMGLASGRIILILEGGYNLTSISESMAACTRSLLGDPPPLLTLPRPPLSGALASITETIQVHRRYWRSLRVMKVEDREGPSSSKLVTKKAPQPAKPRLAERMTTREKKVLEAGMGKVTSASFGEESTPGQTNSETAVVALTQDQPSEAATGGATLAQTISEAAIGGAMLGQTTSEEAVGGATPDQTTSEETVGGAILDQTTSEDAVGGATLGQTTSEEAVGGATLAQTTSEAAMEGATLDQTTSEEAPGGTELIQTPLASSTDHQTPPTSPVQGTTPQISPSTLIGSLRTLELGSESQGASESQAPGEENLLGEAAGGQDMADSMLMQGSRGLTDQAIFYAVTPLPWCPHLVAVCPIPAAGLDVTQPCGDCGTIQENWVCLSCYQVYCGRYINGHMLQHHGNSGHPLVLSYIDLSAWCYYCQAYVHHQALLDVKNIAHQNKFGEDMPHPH
The test can be described thus: Fluorimetric HDAC6 assay. It is filed as biochemical. To be noted: singlicate. The protocol:
In vitro assessments of compounds on the HDAC6 enzyme were performed, as described in our previous works. […] The blank employed for curve fitting was evaluated on a solution of the buffer containing a concentration of […] of DMSO. IC50 values were calculated by using the GraphPad Prism 4 program based on a sigmoidal dose–response equation.

For test [2], the system named is LNCaP prostate cancer cells. Kind of test: Cell viability assay (PrestoBlue) on LNCaP cells. To be noted: 72 h treatment, PrestoBlue, mean of three independent experiments ± SEM, read-out: LNCaP GI50. The class given is cell-based, human. As to the method:
The human prostate cancer cell line PC-3 (ATCC Cat# CRL-1435) was grown in Ham’s F12 (Biowest, Nuaillé, France) medium, while the human prostate cancer cell line LNCaP (ATCC Cat# CRL-1740) was grown in RPMI 1640 (Biowest, Nuaillé, France) medium. Both media were supplemented with 10% Fetal Bovine Serum (FBS, Gibco, Fisher Scientific Italia, Segrate, Italy), 2 mM glutamine, 100 U/mL penicillin, and 100 μg/mL streptomycin. PC-3 and LNCaP cells were maintained at 37 °C in a humidified 5% CO2 atmosphere.
PC-3 and LNCaP cells were seeded at a density of 4000 and 6000 cells/well into a 96-well plate, respectively, together with a calibration curve of known cell numbers. The following day, the cells were treated with the indicated test compounds at different concentrations starting at 75μM with 2-fold serial dilutions. Cell viability was evaluated after 72h by colorimetric MTT (PC-3) or PrestoBlue™ (LNCaP) cell viability reagents. A total of 0.5 mg/mL of thiazolyl blue tetrazolium bromide (MTT) (Sigma-Aldrich, St. Louis, MO, USA) in Ham’s F12 medium was added to the wells, and the plate was incubated at 37 °C for 2 h. Medium containing unconverted MTT was removed, and 100 μL of MTT solvent (4 mM HCl, 0.1% NP40, in isopropyl alcohol) was added to the wells in order to solubilize MTT crystals. After 15 min of incubation at room temperature, the absorbance values at 570 nm were obtained with a Multiskan FC Microplate Photometer (Thermo Fisher Scientific, Waltham, MA, USA). PrestoBlue reagent (#A13261, Thermo Fisher Scientific, Waltham, MA, USA) was added to the medium (1:10 v/v) and incubated for 1 h at 37 °C. Cell viability was calculated by quantifying PrestoBlue reduction by measuring the absorbance at 570 and 620 nm, according to the manufacturer’s protocol. The viability of untreated cells was arbitrarily set at 100%, and the concentration at which cellular growth is inhibited by 50% (GI50) was determined. Three independent experiments were performed.

Molecules are shown by their SMILES. Like-named read-outs stand apart in the source and are kept apart here. Some results are limits rather than exact numbers.

Turning to `CC(C)[C@H](C(=O)NCc1ccc(C(=O)NO)cc1)N1Cc2ccccc2C1=O` [Compound 11], the 50% inhibitory concentration (IC50) in test [1] worked out at 0.005 µM. The GI50 in test [2] (Homo sapiens, LNCaP, 72 h) is 41.3 ± 8.7 µM.
`O=C(c1cc(OCc2ccccc2)ccc1O)N1CCC(c2noc(C(F)(F)F)n2)CC1` [Compound 8]: in test [1], the concentration for half-maximal inhibition (IC50) is 6.5 µM. Moreover, the GI50 in test [2] was 51.6 ± 3.7 µM; in test [2] (Homo sapiens, LNCaP, 72 h), approximately 50 µM.
On to `O=C(Nc1ncccc1O)c1ccc(-c2noc(C(F)(F)F)n2)cc1` [Compound 18], for which, in test [1], the IC50 was 2.7 µM. In addition, the GI50 in test [2] (Homo sapiens, LNCaP, 72 h) is more than 75 µM.

By IC50 is commonly meant the concentration at which inhibition is half-maximal. Broadly, the GI50 is the concentration giving 50% growth inhibition.
